Reference: ChEMBL document CHEMBL4118138, “Discovery of novel 2-[(4-hydroxy-6-oxo-2,3-dihydro-1H-pyridine-5-carbonyl)amino]acetic acid derivatives as HIF prolyl hydroxylase inhibitors for treatment of renal anemia” (Bioorg Med Chem Lett, 2018)
Activity calls are given as the source filed them. No cut-off for these calls is given here.

Key:
Mus musculus [1] = assay: In vivo inhibition of PHD2 in Balb/c mouse assessed as EPO levels in serum at 40 mg/kg, po after 6 hrs by ELISA; type: functional
[2] = Effective half life in Sprague-Dawley rat at 1 mg/kg, iv; type: ADME, organism-based; conditions: in vivo, read-out: t1/2eff (converted)
[3] = Protein binding in human serum at 1 ug/ml after 4 hrs by equilibrium dialysis method; type: ADME, cell-free; conditions: read-out: PB (converted)
[4] = Drug metabolism in Sprague-Dawley rat hepatocytes assessed as oxidative metabolism at 1 uM after 1 hr by LC-MS/MS method; type: ADME, cell-based, Hepatocyte; conditions: read-out: Drug metabolism
[5] = Protein binding in Sprague-Dawley rat serum at 1 ug/ml after 4 hrs by equilibrium dialysis method; type: ADME, cell-free; conditions: read-out: PB (converted)
[6] = Half life in patient administered as qd; type: ADME, organism-based; conditions: human, in vivo
Mus musculus [7] = assay: In vivo inhibition of PHD2 in Balb/c mouse assessed as EPO levels in serum at 100 mg/kg, po after 6 hrs by ELISA; type: functional
Rattus norvegicus [8] = assay: In vivo inhibition of PHD2 in Sprague-Dawley rat assessed as increase in EPO levels in serum at 100 mg/kg, po after 6 hrs by ELISA; type: functional, organism-based
Homo sapiens = assay: Terminal half life in patient with hepatic impairment at 100 mg, po; type: ADME, organism-based; conditions: in vivo
[9] = Protein binding in Sprague-Dawley rat plasma at 0.3 ug/ml after 8 hrs by equilibrium dialysis method; type: ADME, cell-free; conditions: read-out: PPB (converted)
[10] = Drug metabolism in Sprague-Dawley rat hepatocytes assessed as oxidative metabolism at 1 uM after 4 hrs by LC-MS/MS method; type: ADME, cell-based, Hepatocyte; conditions: read-out: Drug metabolism
[11] = Protein binding in human plasma at 0.3 ug/ml after 8 hrs by equilibrium dialysis method; type: ADME, cell-free; conditions: read-out: PPB (converted)
[12] = Drug metabolism in human hepatocytes assessed as oxidative metabolism at 1 uM after 4 hrs by LC-MS/MS method; type: ADME, cell-based, Hepatocyte; conditions: read-out: Drug metabolism
[13] = Drug metabolism in beagle dog hepatocytes assessed as oxidative metabolism at 1 uM after 4 hrs by LC-MS/MS method; type: ADME, cell-based, Canis lupus familiaris, Hepatocyte; conditions: read-out: Drug metabolism
[14] = Protein binding in beagle dog plasma at 0.3 ug/ml after 8 hrs by equilibrium dialysis method; type: ADME, cell-free, Canis lupus familiaris; conditions: read-out: PPB (converted)
[15] = Oral bioavailability in Sprague-Dawley rat at 10 mg/kg by LC-MS/MS method; type: ADME, organism-based; conditions: in vivo
[16] = Half life in Sprague-Dawley rat at 10 mg/kg, po by LC-MS/MS method; type: ADME, organism-based; conditions: in vivo
Egl nine homolog 1 = Egl nine homolog 1 (Rattus norvegicus, UniProt P59722); assay: Inhibition of rat PHD2 using FITC-HIF1-alpha as substrate after 10 mins in presence of 2-oxoglutarate by fluorescence polarization assay
Chain of Egl nine homolog 1 (P59722 whole entry): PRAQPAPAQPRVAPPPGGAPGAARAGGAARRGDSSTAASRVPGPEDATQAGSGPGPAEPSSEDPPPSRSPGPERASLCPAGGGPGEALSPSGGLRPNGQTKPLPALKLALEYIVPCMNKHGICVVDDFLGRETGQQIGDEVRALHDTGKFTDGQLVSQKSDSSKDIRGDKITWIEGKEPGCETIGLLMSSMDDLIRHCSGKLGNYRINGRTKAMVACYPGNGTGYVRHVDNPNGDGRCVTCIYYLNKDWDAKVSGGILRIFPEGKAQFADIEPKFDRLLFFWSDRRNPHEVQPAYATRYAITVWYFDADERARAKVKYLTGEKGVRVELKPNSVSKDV

[17] = Total clearance in beagle dog at 1 mg/kg, iv by LC-MS/MS method; type: ADME, organism-based, Canis lupus familiaris; conditions: in vivo
[18] = Total clearance in Sprague-Dawley rat at 1 mg/kg, iv by LC-MS/MS method; type: ADME, organism-based; conditions: in vivo
[19] = Tmax in beagle dog at 5 mg/kg, po by LC-MS/MS method; type: ADME, organism-based, Canis lupus familiaris; conditions: in vivo
[20] = Oral bioavailability in beagle dog at 5 mg/kg by LC-MS/MS method; type: ADME, organism-based, Canis lupus familiaris; conditions: in vivo
[21] = Half life in beagle dog at 1 mg/kg, iv by LC-MS/MS method; type: ADME, organism-based, Canis lupus familiaris; conditions: in vivo
[22] = Cmax in beagle dog at 5 mg/kg, po by LC-MS/MS method; type: ADME, organism-based, Canis lupus familiaris; design: dose 5 mg/kg, route oral; conditions: in vivo
Rattus norvegicus [23] = assay: In vivo inhibition of PHD2 in Sprague-Dawley rat assessed as EPO levels in serum at 40 mg/kg, po after 8 hrs by ELISA; type: functional
[24] = Volume of distribution at steady state in beagle dog at 1 mg/kg, iv by LC-MS/MS method; type: ADME, organism-based, Canis lupus familiaris; conditions: in vivo, read-out: Vdss
[25] = Half life in beagle dog at 5 mg/kg, po by LC-MS/MS method; type: ADME, organism-based, Canis lupus familiaris; conditions: in vivo
[26] = Cmax in Sprague-Dawley rat at 10 mg/kg, po by LC-MS/MS method; type: ADME, organism-based; design: dose 10 mg/kg, route oral; conditions: in vivo
[27] = Half life in Sprague-Dawley rat at 1 mg/kg, iv by LC-MS/MS method; type: ADME, organism-based; conditions: in vivo
[28] = Tmax in Sprague-Dawley rat at 10 mg/kg, po by LC-MS/MS method; type: ADME, organism-based; conditions: in vivo
[29] = Volume of distribution at steady state in Sprague-Dawley rat at 1 mg/kg, iv by LC-MS/MS method; type: ADME, organism-based; conditions: in vivo, read-out: Vdss

Question: Which “serum EPO level” value (Mus musculus [1]) does the source give for `Cc1ccc(Oc2ccc(CN3CCC(O)=C(C(=O)NCC(=O)O)C3=O)cn2)cc1` here?
Answer: 3497 pg/mL

Question: What about the half-life [2] of the same compound?
Answer: 0.72 h

Question: For `O=C(O)CNC(=O)C1=C(O)CCN(Cc2ccc(-c3ccccc3)cc2)C1=O`, which fraction unbound at 4 h, 1 ug/ml [3] is on record?
Answer: 0.011

Question: And the metabolised at 1 h, 1 µM [4]?
Answer: 34.4%

Question: What about the fraction unbound at 4 h, 1 ug/ml [5] of the same compound?
Answer: 0.007

Question: Which “serum EPO level” value (Mus musculus [1]) does the source give for `Cc1ccc(Oc2ccc(CN3CCC(O)=C(C(=O)NCC(=O)O)C3=O)cc2)cc1` here?
Answer: 4441 pg/mL

Question: What about the half-life [2] of the same compound?
Answer: 0.52 h

Question: Which half-life [6] does the source give for `O=C(O)CNC(=O)C1C(=O)N(C2CCCCC2)C(=O)N(C2CCCCC2)C1=O` [DAPRODUSTAT] here?
Answer: 2.7 h

Question: Which results are given for `O=C(O)CNC(=O)C1=C(O)CC2(CCC2)N(Cc2ccc(-c3ccccc3)cc2)C1=O`?
Answer: fraction unbound at 4 h, 1 ug/ml [3]: 0.005; metabolised at 1 h, 1 µM [4]: 13%; fraction unbound at 4 h, 1 ug/ml [5]: < 0.006

Question: Which results are given for `O=C(O)CNC(=O)C1=C(O)CC2(CCCCC2)N(Cc2ccc(-c3ccccc3)cc2)C1=O`?
Answer: Activity (Mus musculus [7]): 2323 pg/mL; fraction unbound at 4 h, 1 ug/ml [3]: < 0.006; Activity (Rattus norvegicus [8]): inactive; metabolised at 1 h, 1 µM [4]: 31.3%; fraction unbound at 4 h, 1 ug/ml [5]: < 0.006

Question: With `CC1CN(Cc2ccc(-c3ccccc3)cc2)C(=O)C(C(=O)NCC(=O)O)=C1O` (centres undefined) as the compound, how does the fraction unbound at 4 h, 1 ug/ml [3] read?
Answer: < 0.005

Question: And the metabolised at 1 h, 1 µM [4]?
Answer: 6%

Question: What about the fraction unbound at 4 h, 1 ug/ml [5] of the same compound?
Answer: < 0.005

Question: Which “serum EPO level” value (Mus musculus [1]) does the source give for `O=C([O-])CNC(=O)C1=C(O)CCN(Cc2ccc(OCCC3CC3)cc2)C1=O.[Na+]` here?
Answer: 8163 pg/mL

Question: What about the half-life [2] of the same compound?
Answer: 0.46 h

Question: Which “beta t1/2” value (Homo sapiens) does the source give for `Cc1nc(C(=O)NCC(=O)O)c(O)c2ccc(Oc3ccccc3)cc12` [ROXADUSTAT] here?
Answer: 13 h

Question: For `Cc1ccc(Oc2ccc(CN3CCC(O)=C(C(=O)NCC(=O)[O-])C3=O)nc2)cc1.[Na+]`, which “serum EPO level” value (Mus musculus [1]) is on record?
Answer: 1488 pg/mL

Question: Which results are given for `O=C([O-])CNC(=O)C1=C(O)CCN(Cc2ccc(Oc3ccc(Cl)cc3)nc2)C1=O.[Na+]`?
Answer: fraction unbound at 8 h, 0.3 ug/ml [9]: 0.011; serum EPO level (Mus musculus [1]): 8371 pg/mL; metabolised at 4 h, 1 µM [10]: 0.9%; fraction unbound at 8 h, 0.3 ug/ml [11]: 0.009; metabolised at 4 h, 1 µM [12]: 5.7%; metabolised at 4 h, 1 µM [13]: -0.3%; fraction unbound at 8 h, 0.3 ug/ml [14]: 0.011

Question: Which half-life [6] does the source give for `O=C(O)CNC(=O)c1ncc(-c2cccc(Cl)c2)cc1O` [VADADUSTAT] here?
Answer: 4.5 h

Question: For `CC1CC(O)=C(C(=O)NCC(=O)O)C(=O)N1Cc1ccc(-c2ccccc2)cc1` (centres undefined), which fraction unbound at 4 h, 1 ug/ml [3] is on record?
Answer: < 0.006

Question: What about the metabolised at 1 h, 1 µM [4] of the same compound?
Answer: 3.8%

Question: What about the fraction unbound at 4 h, 1 ug/ml [5] of the same compound?
Answer: < 0.006

Question: With `O=C([O-])CNC(=O)C1=C(O)CCN(Cc2ccc(OCCC3CC3)cn2)C1=O.[Na+]` as the compound, how does the “serum EPO level” value (Mus musculus [1]) read?
Answer: 471 pg/mL

Question: Which half-life [2] does the source give for `O=C(O)CNC(=O)C1=C(O)CCN(Cc2ccc(C(F)(F)F)cc2)C1=O` here?
Answer: 4.9 h

Question: For `O=C(O)CNC(=O)C1=C(O)CCN(Cc2ccc(Oc3ccc(Cl)cc3)nc2)C1=O`, which bioavailability [15] is on record?
Answer: 82.8%

Question: What about the half-life [16] of the same compound?
Answer: 2.3 h

Question: And the IC50 (Egl nine homolog 1)?
Answer: 18 nM

Question: And the clearance [17]?
Answer: 3.28 mL/min/kg

Question: What about the clearance [18] of the same compound?
Answer: 7.28 mL/min/kg

Question: And the Tmax [19]?
Answer: 0.75 h

Question: And the bioavailability [20]?
Answer: 52.8%

Question: And the half-life [21]?
Answer: 4.7 h

Question: And the half-life [2]?
Answer: 1.5 h

Question: And the Cmax [22]?
Answer: 6980 ng/mL

Question: And the Activity (Rattus norvegicus [23])?
Answer: 3003 pg/mL

Question: And the Vd [24]?
Answer: 0.231 L/kg

Question: And the half-life [25]?
Answer: 3.5 h

Question: And the Cmax [26]?
Answer: 10700 ng/mL

Question: And the half-life [27]?
Answer: 3.1 h

Question: What about the Tmax [28] of the same compound?
Answer: 0.25 h

Question: And the Vd [29]?
Answer: 0.904 L/kg

Question: Which results are given for `O=C([O-])CNC(=O)C1=C(O)CCN(Cc2ccc(OCCC3CC3)nc2)C1=O.[Na+]`?
Answer: serum EPO level (Mus musculus [1]): 7530 pg/mL; half-life [2]: 0.42 h

Question: For `O=C(O)CNC(=O)C1=C(O)CCN(Cc2ccc(OCC3CC3)cc2)C1=O`, which “serum EPO level” value (Mus musculus [1]) is on record?
Answer: 6258 pg/mL

Question: What about the half-life [2] of the same compound?
Answer: 1.4 h

Question: With `O=C([O-])CNC(=O)C1=C(O)CCN(Cc2ccc(OC3CC3)cc2)C1=O.[Na+]` as the compound, how does the half-life [2] read?
Answer: 0.55 h

Question: With `O=C(O)CNC(=O)C1=C(O)CCN(Cc2ccc(OC(F)(F)F)cc2)C1=O` as the compound, how does the half-life [2] read?
Answer: 2.8 h
